From PubChem BioAssay (NCI)
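Compound exposure: 48 hours, 5 concentrations, 96-well plates. TGI marks complete inhibition of growth.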

Tests used:
Assay in all cases: NCI tumour cell line growth inhibition, 48 h
DMS 114 small cell lung = test system: DMS 114 small cell lung
DMS 273 small cell lung = test system: DMS 273 small cell lung
HOP-18 NSCLC = test system: HOP-18 NSCLC
LXFL 529 NSCLC = test system: LXFL 529 NSCLC
M19-MEL melanoma = test system: M19-MEL melanoma
SNB-78 CNS = test system: SNB-78 CNS
XF 498 CNS = test system: XF 498 CNS
KM20L2 colon = test system: KM20L2 colon
DLD-1 colon = test system: DLD-1 colon
P388 leukemia = test system: P388 leukemia
P388/ADR leukemia = test system: P388/ADR leukemia
SN12K1 renal = test system: SN12K1 renal
RXF-631 renal = test system: RXF-631 renal

Compound	TGI (DMS 114 small cell lung)	TGI (DMS 273 small cell lung)	TGI (HOP-18 NSCLC)	TGI (LXFL 529 NSCLC)	TGI (M19-MEL melanoma)	TGI (SNB-78 CNS)	TGI (XF 498 CNS)	TGI (KM20L2 colon)	TGI (DLD-1 colon)	TGI (P388 leukemia)	TGI (P388/ADR leukemia)	TGI (SN12K1 renal)	TGI (RXF-631 renal)
CC(Oc1ccc(OCC2CCCCC2)cc1)C(=O)N(CCO)CCO (configuration not stated)	> 100 µM	> 100 µM	> 100 µM	> 100 µM	> 100 µM	> 100 µM	> 100 µM						
CC(=O)O[C@]12CCC[C@H]1C1(O)C(O)CCC[C@H]12 (some centres not stated)	> 100 µM	> 100 µM	> 100 µM	> 100 µM	> 100 µM	> 100 µM	> 100 µM	> 100 µM					
CC(CCc1ccc2c(c1)c(=N)c1ccc(N)cc1n2O)CC(C)(C)C (configuration not stated)		3.85 µM	3.35 µM		2.98 µM	4.32 µM	2.45 µM	2.74 µM	3.5 µM				
OC(c1ccccc1)(c1ccccc1)c1cccnc1	> 100 µM	> 100 µM	> 100 µM		> 100 µM	> 100 µM	> 100 µM	> 100 µM	> 100 µM				
COC(=O)[C@@]12OC[C@]34C([C@@H](O)C1O)[C@@]1(C)CC(=O)C(O)=C(C)C1C[C@H]3OC(=O)[C@H](OC(=O)CC(C)C(F)(F)F)[C@H]42 (some centres not stated)	0.128 µM	0.0426 µM	2.79 µM	0.195 µM	0.205 µM	37.5 µM	0.188 µM	0.172 µM	0.509 µM				
CN(C)c1ccc(/C=C/c2cc[n+](C)c3ccccc23)cc1	9.5 µM	10.8 µM	19.9 µM	13.5 µM	14.9 µM	72.4 µM		13.1 µM	17.1 µM				
C=CC12CN(C)C3C4COC(CC41)C1(C(=O)Nc4ccccc41)C32 (configuration not stated)	> 200 µM	> 200 µM	> 200 µM		> 200 µM	> 200 µM	29.2 µM	> 200 µM	> 200 µM	> 133 µM	> 200 µM	> 200 µM	
CC(CCCOC(c1ccccc1)(c1ccccc1)c1ccccc1)OC(=O)Nc1cc([N+](=O)[O-])cc([N+](=O)[O-])c1 (configuration not stated)	> 100 µM	> 100 µM		> 100 µM	> 100 µM				> 100 µM				> 100 µM
Cn1c(=O)nc2n(-c3ccc(Cl)cc3Cl)c3ccccc3nc-2c1=O	4.26 µM		23 µM		2.91 µM	39.3 µM	0.864 µM	5.8 µM	24.5 µM				
CC1=NN(C(=O)c2ccc(Cl)cc2)C(=O)/C1=C/c1cccc([N+](=O)[O-])c1	> 100 µM			> 100 µM	> 100 µM	> 100 µM	> 100 µM	> 100 µM	> 100 µM				
CCOC(=O)CN1CCSC1=NC#N	> 100 µM	> 100 µM	> 100 µM		> 100 µM	> 100 µM	> 100 µM	> 100 µM	> 100 µM	> 100 µM	> 100 µM	> 100 µM	
CC(C)=CCC/C(C)=C/Cc1c(O)ccc2c1[nH]c1cc(O)c(C)cc12	> 25 µM	> 25 µM		> 25 µM	> 25 µM	> 25 µM	> 25 µM	> 25 µM	> 25 µM				
